From the NIST ThermoML archive (doi:10.1016/j.jct.2019.04.023)

Assay: xn = mol fraction of the nth substance listed
Settings: 101 kPa, Liquid; for viscosity: Falling or rolling sphere viscometry; for mass density: Vibrating tube method

CC[N+](CC)=C(N(C)C)N(C)C.O=S(=O)([N-]S(=O)(=O)C(F)(F)F)C(F)(F)F + CO
Settings | mass density [kg/m3] | viscosity [mPa·s]
293.15 K, x1 = 0.0999 | 1073.55 | 1.848
293.15 K, x1 = 0.1984 | 1186.61 | 4.046
293.15 K, x1 = 0.3011 | 1249.9 | 7.913
293.15 K, x1 = 0.4008 | 1288.15 | 13.15
293.15 K, x1 = 0.5055 | 1315.68 | 19.75
293.15 K, x1 = 0.5916 | 1332.42 | 26.14
293.15 K, x1 = 0.712 | 1350.19 | 37.44
293.15 K, x1 = 0.7994 | 1360.11 | 46.94
293.15 K, x1 = 0.8995 | 1369.61 | 61.78
293.15 K, x1 = 1 | 1377.86 | 81.02
298.15 K, x1 = 0.0999 | 1068.63 | 1.685
298.15 K, x1 = 0.1984 | 1181.69 | 3.569
298.15 K, x1 = 0.3011 | 1245.05 | 6.875
298.15 K, x1 = 0.4008 | 1283.31 | 11.36
298.15 K, x1 = 0.5055 | 1310.86 | 16.81
298.15 K, x1 = 0.5916 | 1327.63 | 22.03
298.15 K, x1 = 0.712 | 1345.44 | 30.94
298.15 K, x1 = 0.7994 | 1355.37 | 38.51
298.15 K, x1 = 0.8995 | 1364.9 | 49.75
298.15 K, x1 = 1 | 1373.16 | 65.01
303.15 K, x1 = 0.0999 | 1063.71 | 1.538
303.15 K, x1 = 0.1984 | 1176.79 | 3.198
303.15 K, x1 = 0.3011 | 1240.23 | 6.03
303.15 K, x1 = 0.4008 | 1278.51 | 9.842
303.15 K, x1 = 0.5055 | 1306.08 | 14.47
303.15 K, x1 = 0.5916 | 1322.88 | 18.78
303.15 K, x1 = 0.712 | 1340.73 | 26.03
303.15 K, x1 = 0.7994 | 1350.68 | 32.26
303.15 K, x1 = 0.8995 | 1360.23 | 41.13
303.15 K, x1 = 1 | 1368.51 | 52.96
308.15 K, x1 = 0.0999 | 1058.79 | 1.413
308.15 K, x1 = 0.1984 | 1171.9 | 2.949
308.15 K, x1 = 0.3011 | 1235.43 | 5.332
308.15 K, x1 = 0.4008 | 1273.73 | 8.651
308.15 K, x1 = 0.5055 | 1301.33 | 12.59
308.15 K, x1 = 0.5916 | 1318.16 | 16.22
308.15 K, x1 = 0.712 | 1336.05 | 22.2
308.15 K, x1 = 0.7994 | 1346.03 | 27.19
308.15 K, x1 = 0.8995 | 1355.6 | 34.31
308.15 K, x1 = 1 | 1363.9 | 43.84
313.15 K, x1 = 0.0999 | 1053.86 | 1.296
313.15 K, x1 = 0.1984 | 1167.01 | 2.613
313.15 K, x1 = 0.3011 | 1230.63 | 4.749
313.15 K, x1 = 0.4008 | 1268.96 | 7.645
313.15 K, x1 = 0.5055 | 1296.6 | 11.05
313.15 K, x1 = 0.5916 | 1313.46 | 14.12
313.15 K, x1 = 0.712 | 1331.4 | 19.15
313.15 K, x1 = 0.7994 | 1341.4 | 23.25
313.15 K, x1 = 0.8995 | 1351 | 29.05
313.15 K, x1 = 1 | 1359.32 | 36.79
318.15 K, x1 = 0.0999 | 1048.89 | 1.2
318.15 K, x1 = 0.1984 | 1162.1 | 2.362
318.15 K, x1 = 0.3011 | 1225.81 | 4.261
318.15 K, x1 = 0.4008 | 1264.19 | 6.815
318.15 K, x1 = 0.5055 | 1291.87 | 9.775
318.15 K, x1 = 0.5916 | 1308.77 | 12.43
318.15 K, x1 = 0.712 | 1326.77 | 16.69
318.15 K, x1 = 0.7994 | 1336.79 | 20.12
318.15 K, x1 = 0.8995 | 1346.42 | 24.89
318.15 K, x1 = 1 | 1354.76 | 31.25
323.15 K, x1 = 0.0999 | 1043.89 | 1.114
323.15 K, x1 = 0.1984 | 1157.19 | 2.157
323.15 K, x1 = 0.3011 | 1221 | 3.854
323.15 K, x1 = 0.4008 | 1259.42 | 6.126
323.15 K, x1 = 0.5055 | 1287.15 | 8.704
323.15 K, x1 = 0.5916 | 1304.09 | 10.98
323.15 K, x1 = 0.712 | 1322.14 | 14.66
323.15 K, x1 = 0.7994 | 1332.18 | 17.56
323.15 K, x1 = 0.8995 | 1341.85 | 21.56
323.15 K, x1 = 1 | 1350.21 | 26.79

CC[N+](CC)=C(N(C)C)N(C)C.O=S(=O)([N-]S(=O)(=O)C(F)(F)F)C(F)(F)F + CCO
Settings | mass density [kg/m3] | viscosity [mPa·s]
293.15 K, x1 = 0.0995 | 1018.97 | 2.764
293.15 K, x1 = 0.1987 | 1136.2 | 5.261
293.15 K, x1 = 0.299 | 1207.9 | 9.359
293.15 K, x1 = 0.3991 | 1256.11 | 13.81
293.15 K, x1 = 0.5075 | 1293.66 | 20.03
293.15 K, x1 = 0.5956 | 1316.86 | 26.34
293.15 K, x1 = 0.7065 | 1339.41 | 36.42
293.15 K, x1 = 0.7983 | 1353.71 | 47.01
293.15 K, x1 = 0.9106 | 1367.67 | 62.04
293.15 K, x1 = 0.951 | 1372.2 | 70.47
293.15 K, x1 = 1 | 1377.86 | 81.02
298.15 K, x1 = 0.0995 | 1014.27 | 2.453
298.15 K, x1 = 0.1987 | 1131.43 | 4.596
298.15 K, x1 = 0.299 | 1203.13 | 8.052
298.15 K, x1 = 0.3991 | 1251.35 | 11.82
298.15 K, x1 = 0.5075 | 1288.9 | 16.96
298.15 K, x1 = 0.5956 | 1312.11 | 22.12
298.15 K, x1 = 0.7065 | 1334.68 | 30.22
298.15 K, x1 = 0.7983 | 1348.98 | 38.69
298.15 K, x1 = 0.9106 | 1362.96 | 50.44
298.15 K, x1 = 0.951 | 1367.5 | 56.94
298.15 K, x1 = 1 | 1373.16 | 65.01
303.15 K, x1 = 0.0995 | 1009.56 | 2.19
303.15 K, x1 = 0.1987 | 1126.67 | 4.044
303.15 K, x1 = 0.299 | 1198.38 | 6.99
303.15 K, x1 = 0.3991 | 1246.63 | 10.23
303.15 K, x1 = 0.5075 | 1284.19 | 14.53
303.15 K, x1 = 0.5956 | 1307.39 | 18.83
303.15 K, x1 = 0.7065 | 1329.99 | 25.47
303.15 K, x1 = 0.7983 | 1344.3 | 32.25
303.15 K, x1 = 0.9106 | 1358.3 | 41.52
303.15 K, x1 = 0.951 | 1362.85 | 46.62
303.15 K, x1 = 1 | 1368.51 | 52.96
308.15 K, x1 = 0.0995 | 1004.84 | 1.964
308.15 K, x1 = 0.1987 | 1121.91 | 3.583
308.15 K, x1 = 0.299 | 1193.62 | 6.102
308.15 K, x1 = 0.3991 | 1241.9 | 8.914
308.15 K, x1 = 0.5075 | 1279.48 | 12.57
308.15 K, x1 = 0.5956 | 1302.7 | 16.19
308.15 K, x1 = 0.7065 | 1325.33 | 21.69
308.15 K, x1 = 0.7983 | 1339.66 | 27.29
308.15 K, x1 = 0.9106 | 1353.68 | 34.83
308.15 K, x1 = 0.951 | 1358.24 | 38.87
308.15 K, x1 = 1 | 1363.9 | 43.84
313.15 K, x1 = 0.0995 | 1000.1 | 1.773
313.15 K, x1 = 0.1987 | 1117.13 | 3.195
313.15 K, x1 = 0.299 | 1188.87 | 5.364
313.15 K, x1 = 0.3991 | 1237.18 | 7.841
313.15 K, x1 = 0.5075 | 1274.79 | 10.98
313.15 K, x1 = 0.5956 | 1298.03 | 14.08
313.15 K, x1 = 0.7065 | 1320.7 | 18.73
313.15 K, x1 = 0.7983 | 1335.04 | 23.34
313.15 K, x1 = 0.9106 | 1349.09 | 29.46
313.15 K, x1 = 0.951 | 1353.66 | 32.73
313.15 K, x1 = 1 | 1359.32 | 36.79
318.15 K, x1 = 0.0995 | 995.32 | 1.606
318.15 K, x1 = 0.1987 | 1112.33 | 2.864
318.15 K, x1 = 0.299 | 1184.11 | 4.758
318.15 K, x1 = 0.3991 | 1232.46 | 6.927
318.15 K, x1 = 0.5075 | 1270.1 | 9.662
318.15 K, x1 = 0.5956 | 1293.36 | 12.36
318.15 K, x1 = 0.7065 | 1316.07 | 16.3
318.15 K, x1 = 0.7983 | 1330.44 | 20.16
318.15 K, x1 = 0.9106 | 1344.52 | 25.22
318.15 K, x1 = 0.951 | 1349.1 | 27.9
318.15 K, x1 = 1 | 1354.76 | 31.25
323.15 K, x1 = 0.0995 | 990.51 | 1.463
323.15 K, x1 = 0.1987 | 1107.51 | 2.585
323.15 K, x1 = 0.299 | 1179.33 | 4.253
323.15 K, x1 = 0.3991 | 1227.73 | 6.158
323.15 K, x1 = 0.5075 | 1265.41 | 8.555
323.15 K, x1 = 0.5956 | 1288.7 | 10.91
323.15 K, x1 = 0.7065 | 1311.45 | 14.31
323.15 K, x1 = 0.7983 | 1325.84 | 17.59
323.15 K, x1 = 0.9106 | 1339.96 | 21.82
323.15 K, x1 = 0.951 | 1344.55 | 24.03
323.15 K, x1 = 1 | 1350.21 | 26.79
